The results in this text go back to patent US6348484B1, “Stereoisomeric indole compounds, process for the preparation of the same, and use thereof” (Lead Chemical Co., Ltd., priority 1997, dated 2002).

The term melting point denotes the temperature, or range, at which the solid turns liquid.

In series [1] the test system is lipid peroxidation of microsome in rat liver. Nature of the series: Inhibitory action against lipid peroxidation of microsome in rat liver (TBA reactive substances, absorption at 535 nm). It is filed as biochemical. As for the experimental part:
10 μl of microsome fraction (protein concentration; 30-50 mg/ ml) prepared from rat liver and 10 μl of a solution of a compound to be tested in ethanol are added to 0.5 ml of 0.1 M Tris hydrochloride buffer (pH7.5) containing 14 mM MgCl2, which is mixed and preincubated at 37° C. for 5 minutes. Then, 10 μl of 0.2M adenosine diphosphate, 10 μl of 12 mM FeSO4, 40 μl of NADPH reproduced system and distilled water are added to make 1 m1, mixed and reacted at 37° C. for 10 minutes.

As to `CC[C@H](C)CCc1nc(COOCc2ccccc2)c(-c2c[nH]c3ccccc23)o1` [compound 55], the melting point is 138.5 to 139.5 °C. With “(1″S, 3″S) Martefragin A [(1″S, 3″S)-19]”, the “Inhibiting Concentration (IC50 μg/ml)” value in series [1] (Example 7, rat liver microsome fraction, ADP/FeSO4/NADPH system, 37° C. for 10 minutes) was determined as 1.07 µg/mL; in series [1] (Example 8, method of Example 7, deamino form compared with synthetic (1″S, 3″S) Martefragin A) it was 1.35 µg/mL.
